Experimental data from US20260158094A1, “COMPOSITION FOR PREVENTING, IMPROVING OR TREATING SKELETAL MUSCLE ATROPHY OR SARCOPENIA COMPRISING EXTRACT OR ISOLATED COMPOUND FROM STELLARIA DICHOTOMA AS ACTIVE INGREDIENT” (INDUSTRY-UNIVERSITY COOPERATION FOUNDATION HANYANG …, priority 2023, published 2026).
“And” between values parts separate entries of the source, which are not always exact repeats. Identical values can stand only once. Marks after values point to notes of the source that are not given here.

Assays:
[1] = tested on: C2C12 myotubes; test: Dexamethasone-induced atrophy of differentiated C2C12 myotubes, myotube diameter (ImageJ); format: cell-based, mouse; details: for prevention of dexamethasone-induced reduction in diameter of C2C12 myotubes (in words): dexamethasone-induced atrophy
Procedure: C2C12 mouse myoblasts used in this experiment were obtained from the American Type Culture Collection (ATCC). The cells were cultured in Dulbecco's Modified Eagle's Medium (DMEM) containing 10% fetal bovine serum (FBS), 100 U/mL penicillin, and 100 μg/mL streptomycin under conditions of 5% CO2 at 37° C. The C2C12 cells were seeded into 12-well plates and allowed to proliferate until reaching a confluence of 85-90%.
For induction of differentiation, the culture medium was replaced with a differentiation medium composed of DMEM supplemented with 2% horse serum, 100 U/mL penicillin, and 100 μg/mL streptomycin. The medium was replaced every two days, and differentiation was carried out for a total of 6 days.
The diameter of the C2C12 myotubes was measured using the ImageJ cell processing software. For each experimental group, the diameters of 50 individual myotubes were measured to calculate the average and standard error.

[2] = tested on: C2C12 myotubes; test: Fusion index of MHC-positive multinucleated C2C12 myotubes after dexamethasone (MHC immunofluorescence); format: cell-based, mouse
Procedure: The experiment was conducted similarly to Example 3-2. However, Dichotomine B was administered at concentrations of 10 μM and 30 μM.
After completion of treatment, the culture media from each group was removed, and cells were washed twice with phosphate-buffered saline (PBS), fixed with 4% paraformaldehyde for 15 minutes, and washed three times with PBS. The cells were then permeabilized with 0.1% Triton X-100 for 10 minutes, washed twice with PBS, and blocked with 3% horse serum solution for 2 hours. Mouse anti-MHC antibody was diluted 1:100 in 3% BSA and incubated overnight at 4° C. The cells were washed three times with 0.1% PBST. Goat anti-mouse IgG-FITC secondary antibody (Thermo Fisher Scientific) was diluted 1:500 in 3% BSA and reacted for 1 hour at 37° C., followed by three washes with 0.1% PBST. Next, cells were stained with 1 μg/mL Hoechst 33342 solution for 10 minutes at room temperature. Cell imaging was performed using the JuLi™ system. MHC immunofluorescence was visualized in green, and cell nuclei stained with Hoechst 33342 were visualized in blue.
From the results of Section 7-3, randomly selected multinucleated myotubes were analyzed to calculate the fusion index. The number of multinucleated myotubes (i.e., myotubes containing multiple nuclei) was counted and normalized to the total number of cells. The relative number of MHC-positive multinucleated myotubes was determined for each treatment group (see Table 4 and FIG. 13).

[3] = tested on: MHC, Atrogin-1 and MuRF-1 in C2C12 myotubes; test: Western blotting of dexamethasone-treated C2C12 myotubes; format: cell-based, mouse; details: dexamethasone model, western blot
Procedure: C2C12 cells were seeded in a 6-well plate at a density of 1×10^5 cells per well. After differentiation was complete, each group was treated with dexamethasone and the test sample according to the respective experimental condition.
Cells were lysed using a lysis buffer containing LIPA buffer, protease inhibitors, and phosphatase inhibitors. A volume of 200 μL of the prepared lysis buffer was added per well, and the cells were collected using a cell scraper. The lysates were centrifuged at 13,000 rpm for 20 minutes, and the supernatants were collected. Protein concentrations were measured using the BCA protein assay method. Equal amounts of protein were separated using 8% SDS-PAGE.
The separated proteins were transferred to a nitrocellulose membrane, followed by blocking with 3% BSA buffer. The membranes were incubated with various primary antibodies (e.g., MHC, FoxO3a, MuRF1, GAPDH), followed by sequential washing, incubation with secondary antibodies, and further washing steps.
Protein expression was detected using enhanced chemiluminescence (ECL), and images were acquired using the ChemiDoc imaging system. Quantification of each protein expression level was performed using ImageJ software.

[4] = tested on: C2C12 myotubes; test: In vitro starvation model (serum-free/low-glucose medium), C2C12 myotube diameter and MHC-stained area; format: cell-based, mouse
Procedure: (§1) Culturing differentiated C2C12 myotubes in serum-free/low-glucose medium inhibits muscle protein synthesis and induces muscle atrophy through increased protein degradation. In this example, C2C12 myotubes differentiated as in Section 8-1 were cultured in serum-free/low-glucose medium to induce atrophy, and the cells were then treated with Dichotomine B under the following specific experimental conditions: • 1. Control group: Differentiated C2C12 myotubes were maintained in normal differentiation medium for 48 hours. • 2. Negative control group: Differentiated C2C12 myotubes were cultured in serum-free/low-glucose medium for 48 hours. • 3 Dichotomine B treatment groups: In the same condition as the negative control group, Dichotomine B was additionally administered at concentrations of 1 μM or 10 μM for 48 hours.
This procedure was conducted in the same manner as described in Section 7-3.
The diameter and staining area of the myotubes were measured as described in Example 3-3. The mean and standard errors were calculated, and the results were organized into Table 6. Each experiment was performed in triplicate.

[5] = tested on: MHC, FOXO3a, Atrogin-1 and MuRF-1 in C2C12 myotubes; test: Western blotting in the C2C12 starvation model; format: cell-based, mouse; details: western blot
Procedure: as §1
Western blotting was performed in the same manner as described in Example 7-5 to assess the expression levels of related proteins.

[6] = Body weight of mice with 48-hour fasting; format: in vivo, C57BL/6 male mice; details: 10 mg/kg; for Body weight (g), End of Sample Administration: administered twice
Procedure: (§2) C57BL/6 male mice (6 weeks old) were obtained from Koatech (Pyeongtaek, Gyeonggi-do, Korea) and acclimated for one week in the Hanyang University ERICA Laboratory Animal Center (Animal Facility Registration No. 445) before use in the experiments. The lighting cycle was set to 12 hours (07:00 to 19:00), and food and water were provided ad libitum. All animal experiments were conducted in compliance with the guidelines and regulations of the Institutional Animal Care and Use Committee (IACUC) of Hanyang University.
(§3) After acquisition of the experimental animals and a 7-day acclimation period, the experiment was conducted.
Solid feed for laboratory animals (Woojung Bio, Hwaseong, Gyeonggi-do, Korea) was provided, and all treatments were administered during a fixed time window (10:00 AM to 12:00 PM).
(§4) Body weight was measured three times in total. For the fasting group, each animal was housed individually during the fasting period. The test sample was administered twice: once at the start of the fasting period, and again 24 hours later. Experimental results are presented as means±standard deviation (SD). Statistical significance among groups was analyzed using ANOVA t-tests via the StatView program.
In the non-fasting group, body weight changes were within the normal range. However, in the fasting group (F group), a statistically significant reduction in body weight was observed after 48 hours of fasting (see Table 7).

[7] = tested on: C57BL/6 male mice; test: Grip strength of mice after 48-hour fasting (grip strength meter); format: in vivo; details: fed mice, 10 mg/kg
Procedure: as §2, §3, §4
After the completion of the fasting period, grip strength was measured using a grip strength meter.

[8] = tested on: C57BL/6 male mice; test: Muscle tissue weights (TA, EDL, GA, SOL) of mice after 48-hour fasting; format: in vivo; details: 10 mg/kg
Procedure: as §2, §3, §4
To evaluate muscle loss, the weights of dissected muscle tissues-including the tibialis anterior (TA), extensor digitorum longus (EDL), gastrocnemius (GA), and soleus (SOL)-were measured post-mortem and summarized in Table 9.

[9] = Dex 10 μM + compound 30 μM, 24 hours
[10] = starvation (serum free/low glucose medium) 48 hours + compound 1 μM
[11] = starvation (serum free/low glucose medium) 48 hours + compound 10 μM
[12] = fed mice (Feed + Dichotomine B)

With C[C@@H]1C[C@H]2[C@@H]3CCC4=CC(=O)C=C[C@]4(C)[C@@]3(F)[C@@H](O)C[C@]2(C)[C@@]1(O)C(=O)CO [Dex, Dexamethasone, reference compound] as the compound, how does the “C2C12 myotube diameter (% of control)” value ([1]; dexamethasone 10 μM alone, 24 hours (negative control group)) read?
Its value is 79.9^a % of control.

What about the “decrease of C2C12 myotube diameter compared to the control group” value ([1]; dexamethasone 10 μM vs differentiation medium alone) of the same compound?
Its value is 21.1%.

What about the “fusion index of MHC-positive multinucleated C2C12 myotubes (% of control)” value ([2]; Dex 10 μM alone) of the same compound?
The value was 80.0^a % of control.

Which results are given for O=C(O)c1cc2c([nH]c3ccccc32)c([C@@H](O)CO)n1 [Dichotomine B]?
C2C12 myotube diameter (% of control) ([1]; Dex 10 μM + compound 10 μM, 24 hours): 97.9^b % of control; C2C12 myotube diameter (% of control) [1, 9]: 98.2^b % of control and 100.6^b % of control; prevention of dexamethasone-induced reduction in diameter of C2C12 myotubes (in words) [1]: effectively prevented; fusion index of MHC-positive multinucleated C2C12 myotubes (% of control) ([2]; Dex 10 μM + compound 10 μM): 90.3^b % of control; fusion index of MHC-positive multinucleated C2C12 myotubes (% of control) ([2]; Dex 10 μM + compound 30 μM): 92.3^b % of control; fusion index of multinucleated C2C12 myotubes (in words) ([2]; dexamethasone model): significantly improved the fusion index; MHC expression [3]: increased in a concentration-dependent manner; expression of Atrogin-1 and MuRF-1 [3]: reduced; C2C12 myotube diameter (% of control) [4, 10]: 98.6 + 9.3^b % of control; MHC positive area (% of control) [4, 10]: 93.6 + 7.8^b % of control; C2C12 myotube diameter (% of control) [4, 11]: 100.4 ± 10.8^b % of control; MHC positive area (% of control) [4, 11]: 97.1 ± 8.4^b % of control; effect on starvation-induced changes of MHC, FOXO3a, Atrogin-1 and MuRF-1 expression [5]: effectively reversed these effects; Body weight (g), Start of Sample Administration [6, 12]: 21.080 ± 0.370 g; Body weight (g), End of Sample Administration [6, 12]: 21.400 ± 0.339 g; effect on body weight (in words) ([6]; mice, 48-hour fasting): no significant effect on body weight; Body weight (g), Start of Sample Administration ([6]; starved mice (Starvation + Dichotomine B)): 22.214 ± 0.701 g; Body weight (g), End of Sample Administration ([6]; starved mice, 48-hour fasting): 17.743 ± 0.885 g; Grip Strength (gf) [7]: 190 ± 11.7 gf; Extensor Digitorum Longus (EDL) weight ([8]; fed mice): 0.012 ± 0.002 g; Gastrocnemius (GA) weight ([8]; fed mice): 0.169 ± 0.014 g; Soleus (SOL) weight ([8]; fed mice): 0.010 ± 0.001 g; Tibialis Anterior (TA) weight ([8]; fed mice): 0.058 ± 0.006 g; Extensor Digitorum Longus (EDL) weight ([8]; starved mice, 48-hour fasting): 0.014 ± 0.004 g; Gastrocnemius (GA) weight ([8]; starved mice, 48-hour fasting): 0.165 ± 0015 g

With C[C@H](O)c1nc(C(=O)O)cc2c1[nH]c1ccccc12 [Dichotominee A, Dichotomine A] as the compound, how does the “C2C12 myotube diameter (% of control)” value [1, 9] read?
Its value is 87.9 % of control.

Which “C2C12 myotube diameter (% of control)” value [1, 9] does the source give for O=c1cc(-c2ccc(O)cc2)oc2c([C@@H]3O[C@H](CO)[C@@H](O)[C@H](O)[C@H]3O)c(O)c([C@@H]3OC[C@H](O)[C@H](O)[C@H]3O)c(O)c12 [Isoshaftoside] here?
Its value is 95.7^c % of control.

And the “prevention of dexamethasone-induced reduction in diameter of C2C12 myotubes (in words)” value [1]?
The value was “effectively prevented”.

Which results are given for Glucodichotomine B?
C2C12 myotube diameter (% of control) [1, 9]: 102.0^b % of control; prevention of dexamethasone-induced reduction in diameter of C2C12 myotubes (in words) [1]: effectively prevented

Which results are given for Shaftoside?
C2C12 myotube diameter (% of control) [1, 9]: 92.7^c % of control; prevention of dexamethasone-induced reduction in diameter of C2C12 myotubes (in words) [1]: effectively prevented
